In brackets after ≈: the same amount, converted by molar mass.

For one data set, the system named is B. cereus. Kind of data set: Minimum Inhibitory Concentration (MIC), broth dilution method. Conditions: Bacillus cereus, read-out: MIC B. cereus. The format is cell-based. As for the experimental part: (§1) Minimum Inhibitory Concentration (MIC), Broth Dilution Method:
(§2) The compounds of the present invention were tested against selected Gram positive and Gram negative organisms using standard microtitration techniques well known to those skilled in the art. Cultures of bacteria were initially applied by streaking a loopful onto agar plates under the appropriate conditions. For example, bacterial stocks are streaked for isolation of single colonies onto chocolate agar and then incubated for 18 hours at 35-37° C. in a 5% CO2 incubator. Five to ten colonies were picked from the chocolate agar plate for subculture to Brain-Heart infusion (BHI) broth, Mueller Hinton broth, or BHI containing 4% serum, and incubated under the appropriate conditions. The ability of the test compound to act as an antimicrobial was determined by the ability of dilutions of the test substance to inhibit bacterial growth in vitro. The optical density of the culture of organisms in the presence of an active compound was compared to the optical density of the same organism grown without test compound. The activity of the compounds is described as either negative or the lowest concentration inhibiting growth (Minimum Inhibitory Concentration [MIC]).
(§3) The activity of selected compounds of the present invention against representative Gram positive and Gram negative bacteria are shown in the following Table 1.
With `Oc1cc(Cl)c(NC(=S)Nc2ccc(F)cc2)cc1Oc1ccc(Cl)cc1Cl` [Example 10, 1-[2-Chloro-5-(2,4-dichloro-phenoxy)-4-hydroxy-phenyl]-3-(4-fluoro-phenyl)-thiourea], the MIC turned out to be 400 µg/mL (≈ 0.874 mM).
Consider `Oc1cc(Cl)c(-n2cnnn2)cc1Oc1ccc(Cl)cc1Cl` [Example 32, 5-Chloro-2-(2,4-dichloro-phenoxy)-4-tetrazol-1-yl-phenol], for which the MIC stood at 1300 µg/mL (≈ 3.64 mM).
As to `CCOC(=O)NC(=S)Nc1cc(Oc2ccc(Cl)cc2Cl)c(O)cc1Cl` [Example 7], the MIC worked out at 800 µg/mL (≈ 1.84 mM).

In the next data set the test system is S. aureus 29213. The data set is described as above. The format is cell-based. Conditions: Staphylococcus aureus, 29213, read-out: MIC S. aureus 29213. As for the experimental part:
as §1, §2, §3
For the compound `Oc1cc(Cl)c(NC(=S)Nc2ccc(F)cc2)cc1Oc1ccc(Cl)cc1Cl` [Example 10, 1-[2-Chloro-5-(2,4-dichloro-phenoxy)-4-hydroxy-phenyl]-3-(4-fluoro-phenyl)-thiourea], the MIC was determined as 4000 µg/mL (≈ 8.74 mM).
On the same count and under the same terms, then `Oc1cc(Cl)c(-n2cnnn2)cc1Oc1ccc(Cl)cc1Cl` [Example 32, 5-Chloro-2-(2,4-dichloro-phenoxy)-4-tetrazol-1-yl-phenol], with 1600 µg/mL (≈ 4.47 mM).
Still for that read-out and setting: then `CCOC(=O)NC(=S)Nc1cc(Oc2ccc(Cl)cc2Cl)c(O)cc1Cl` [Example 7], with 2000 µg/mL (≈ 4.59 mM).

The next data set relates to S. pneumoniae 11733. The description is as above. Conditions: Streptococcus pneumoniae, 11733, read-out: MIC S. pneumoniae 11733. The format is cell-based. As for the experimental part: as §1, §2, §3
On to `Oc1cc(Cl)c(NC(=S)Nc2ccc(F)cc2)cc1Oc1ccc(Cl)cc1Cl` [Example 10, 1-[2-Chloro-5-(2,4-dichloro-phenoxy)-4-hydroxy-phenyl]-3-(4-fluoro-phenyl)-thiourea], for which the MIC amounted to 31300 µg/mL (≈ 68.4 mM).
Same read-out and setting: then `Oc1cc(Cl)c(-n2cnnn2)cc1Oc1ccc(Cl)cc1Cl` [Example 32, 5-Chloro-2-(2,4-dichloro-phenoxy)-4-tetrazol-1-yl-phenol], with 3100 µg/mL (≈ 8.67 mM); and `CCOC(=O)NC(=S)Nc1cc(Oc2ccc(Cl)cc2Cl)c(O)cc1Cl` [Example 7], with 31300 µg/mL (≈ 71.8 mM).

The test system of the next data set is B.anthracis V770-NR1-R. Kind of data set: microbe, parasite or virus in culture. The class given is cell-based. The following applies: Bacillus anthracis, V770NR1R, read-out: MIC B.anthracis V770-NR1-R.
In the case of `Oc1cc(Cl)c(NC(=S)Nc2ccc(F)cc2)cc1Oc1ccc(Cl)cc1Cl` [Example 10, 1-[2-Chloro-5-(2,4-dichloro-phenoxy)-4-hydroxy-phenyl]-3-(4-fluoro-phenyl)-thiourea], the MIC stood at 1600 µg/mL (≈ 3.5 mM).
On to `Oc1cc(Cl)c(-n2cnnn2)cc1Oc1ccc(Cl)cc1Cl` [Example 32, 5-Chloro-2-(2,4-dichloro-phenoxy)-4-tetrazol-1-yl-phenol], for which the MIC stood at 800 µg/mL (≈ 2.24 mM).
Same read-out and setting: then `CCOC(=O)NC(=S)Nc1cc(Oc2ccc(Cl)cc2Cl)c(O)cc1Cl` [Example 7], with 1600 µg/mL (≈ 3.67 mM).

Test system in another data set: not given
Test: not given
Conditions: not given
A word on the melting point: it is the temperature of the solid-liquid transition. `Oc1cc(Cl)c(NC(=S)Nc2ccc(F)cc2)cc1Oc1ccc(Cl)cc1Cl` [Example 10, 1-[2-Chloro-5-(2,4-dichloro-phenoxy)-4-hydroxy-phenyl]-3-(4-fluoro-phenyl)-thiourea] registered a melting point of 89 to 91 °C.
Compound `Oc1cc(Cl)c(-n2cnnn2)cc1Oc1ccc(Cl)cc1Cl` [Example 32, 5-Chloro-2-(2,4-dichloro-phenoxy)-4-tetrazol-1-yl-phenol] yielded a melting point of 147 to 148 °C.
With `CCOC(=O)NC(=S)Nc1cc(Oc2ccc(Cl)cc2Cl)c(O)cc1Cl` [Example 7], the melting point was in the range of 170 to 172 °C.

Values taken from patent US20070054884A1 (priority 2005, published 2007).
